“And” between values parts separate entries of the source, which are not always exact repeats. Equal entries are not always repeated. “Also recorded” adds a separate entry of the source. Where two headings read alike, the source gives them in different places.
Key:
[1] = system: Influenza virus (A/PR8/8/34 strain, H1N1); type: in vivo, BALB/c mice; details: 21 days
[2] = system: M2e; parameters: species or system BALB/c mice; details: mouse, in vivo
[3] = system: M2e; parameters: species or system BALB/c mice; details: mouse, in vivo; remark: listed apart in the source
[4] = system: Influenza virus (A/PR8/8/34 strain, H1N1); parameters: species or system BALB/c mice; details: mouse, in vivo

Sequence	Survival rate [1]	anti-M2e antibody titer immediately before challenge [2]	anti-M2e antibody titer just before challenge [3]	Survival rate [4]
SLLTEVETPTRSEWECRCSDSSD [swM2e, reference compound]	4/10 and 8/10	high anti-M2e antibody titer; also recorded: almost no increase in an antibody titer	–	–
SLLTEVETPIRNEWGCRCNDSSD (Influenza A virus) [M2e, peptide of 23 amino acid residues, positions No. 2 to No. 24 of M2 in influenza virus type A, no cysteine inserted, reference compound]	–	–	could not induce an anti-M2e antibody titer	3/8
